For assay [1], the target named is T1, human GLP-1 receptor (hGLP-1R) (Homo sapiens, UniProt P43220).
T1 construct: expressed in transfected cells; crude membranes
In words: [125I]-GLP-1 binding, SPA with membranes of HEK293 cells expressing hGLP-1R.

For another assay, the target named is T2, hGIPR (Homo sapiens, UniProt P48546).
T2 construct: expressed in transfected cells
T2 sequence (P48546 22-466): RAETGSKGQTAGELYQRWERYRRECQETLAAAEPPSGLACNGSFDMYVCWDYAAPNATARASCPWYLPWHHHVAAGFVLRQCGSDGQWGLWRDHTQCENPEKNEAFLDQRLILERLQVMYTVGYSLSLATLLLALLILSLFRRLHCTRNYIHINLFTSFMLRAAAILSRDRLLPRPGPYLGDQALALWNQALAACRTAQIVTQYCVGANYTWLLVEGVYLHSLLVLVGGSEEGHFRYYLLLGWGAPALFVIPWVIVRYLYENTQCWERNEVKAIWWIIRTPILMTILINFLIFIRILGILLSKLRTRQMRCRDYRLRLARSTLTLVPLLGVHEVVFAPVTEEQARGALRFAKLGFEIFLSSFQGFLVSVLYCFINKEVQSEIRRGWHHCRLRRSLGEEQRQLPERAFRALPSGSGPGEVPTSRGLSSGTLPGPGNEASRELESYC
The experiment in a line: Functional cAMP formation (HTRF) in HEK-293 clonal cells expressing hGIPR, 0.1% bovine casein, without or with 1.0% human serum albumin. Type of assay: cell-based. In a few lines:
(§1)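 Cells were stimulated with peptide for 30 min at 37° C, then lysed in buffer carrying cAMP-d2 and anti-cAMP Eu3+-cryptate for a competitive HTRF read after at least 60 min at room temperature. The 665/620 nm ratio was converted to nM cAMP against a standard curve.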
A general note: cAMP levels reflect the balance of adenylyl cyclase and phosphodiesterase activity.

The next assay addresses T3, hGCGR (Homo sapiens, UniProt P47871).
T3 construct: expressed in transfected cells
In words: Functional cAMP formation (HTRF) in HEK-293 clonal cells expressing hGCGR, 0.1% bovine casein, without or with 1.0% human serum albumin. Type of assay: cell-based. In a few lines: as §1

For the next assay, the target named is hGLP-1R (Homo sapiens, UniProt P43220). The experiment in a line: Functional cAMP formation (HTRF) in HEK-293 clonal cells expressing hGLP-1R, 0.1% bovine casein, without or with 1.0% human serum albumin. The assay is classed as cell-based. Set-up: expressed in transfected cells. To be noted: for Emax: percent of maximal response to GLP-1(7-36)NH2; for EC50: geometric mean. An outline of the steps: as §1

[2] abbreviates: HEK293, read-out: hGIPR Emax, % ± SEM, cAMP, 37° C., 0.1% bovine casein and 1.0% human serum albumin, percent of maximal response to GIP(1-42)NH2.
[3] abbreviates: hGIPR EC50, nM (SEM, n), cAMP, 37° C., 0.1% bovine casein (no human serum albumin), geometric mean.
Where [4] appears, read: hGCGR EC50, nM (SEM, n), cAMP, 37° C., 0.1% bovine casein (no human serum albumin), geometric mean.
[5] abbreviates: hGCGR EC50, nM (SEM, n), cAMP, 37° C., 0.1% bovine casein and 1.0% human serum albumin, geometric mean (SEM, n).
The mark [6] stands for this setting: HEK293, read-out: hGLP-1R Emax, % ± SEM, cAMP, 37° C., 0.1% bovine casein, arithmetic mean.
Where [7] appears, read: hGLP-1R EC50, nM (SEM, n), cAMP, 37° C., 0.1% bovine casein (no human serum albumin).
[8] abbreviates: human GLP-1R, geometric mean (SEM, n), read-out: Binding Affinity Ki, nM (SEM, n) hGLP-1R.

Read-outs that look alike come from different tables or passages of the source.

T3 sequence (P47871 26-477): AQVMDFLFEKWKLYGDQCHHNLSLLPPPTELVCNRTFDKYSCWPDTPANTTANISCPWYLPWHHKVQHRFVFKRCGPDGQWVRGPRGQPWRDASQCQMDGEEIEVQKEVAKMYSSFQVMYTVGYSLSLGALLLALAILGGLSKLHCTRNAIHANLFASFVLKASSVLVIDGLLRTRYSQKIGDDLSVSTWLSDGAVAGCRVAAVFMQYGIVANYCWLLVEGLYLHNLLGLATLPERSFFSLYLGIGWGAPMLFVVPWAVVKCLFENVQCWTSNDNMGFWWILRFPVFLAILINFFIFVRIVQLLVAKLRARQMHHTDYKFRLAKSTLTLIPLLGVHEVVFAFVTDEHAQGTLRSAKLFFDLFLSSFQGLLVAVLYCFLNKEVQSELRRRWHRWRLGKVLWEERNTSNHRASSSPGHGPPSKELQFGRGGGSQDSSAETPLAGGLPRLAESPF
T1 sequence (P43220 24-463): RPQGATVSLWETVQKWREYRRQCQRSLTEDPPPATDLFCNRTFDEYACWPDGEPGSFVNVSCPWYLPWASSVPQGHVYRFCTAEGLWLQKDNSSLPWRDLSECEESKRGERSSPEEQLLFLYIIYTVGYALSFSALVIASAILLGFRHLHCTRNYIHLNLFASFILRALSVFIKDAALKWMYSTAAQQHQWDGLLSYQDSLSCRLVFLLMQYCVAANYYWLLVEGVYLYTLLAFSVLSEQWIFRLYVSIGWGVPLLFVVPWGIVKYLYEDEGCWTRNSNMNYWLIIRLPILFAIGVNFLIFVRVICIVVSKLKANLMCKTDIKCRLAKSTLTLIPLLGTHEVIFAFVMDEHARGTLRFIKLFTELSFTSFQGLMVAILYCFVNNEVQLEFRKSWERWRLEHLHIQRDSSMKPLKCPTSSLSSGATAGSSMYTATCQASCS
hGLP-1R, sequence (P43220 24-463): as above

The Ki is the dissociation constant of the complex between target and ligand, obtained from inhibition or displacement. In general, Emax refers to the greatest response seen or fitted, relative to the assay's reference. Usually EC50 stands for the midpoint of the concentration-response curve. The compound `CC[C@H](C)[C@H](NC(=O)[C@H](CC(C)C)NC(=O)[C@](C)(Cc1ccc(O)cc1)NC(=O)[C@H](CCCCNC(=O)COCCOCCNC(=O)CC[C@H](NC(=O)CC[C@H](NC(=O)CC[C@H](NC(=O)CCCCCCCCCOc1ccc(C(=O)O)cc1)C(=O)O)C(=O)O)C(=O)O)NC(=O)[C@@H](NC(=O)[C@H](Cc1ccccc1)NC(=O)[C@H](CCCN)NC(=O)C(C)(C)NC(=O)[C@H](CCC(N)=O)NC(=O)[C@H](C)NC(=O)[C@H](CCC(N)=O)NC(=O)[C@H](CCCN)NC(=O)[C@H](CC(=O)O)NC(=O)[C@H](CC(C)C)NC(=O)[C@](C)(CC(C)C)NC(=O)[C@@H](NC(=O)C(C)(C)NC(=O)[C@H](Cc1ccncc1)NC(=O)[C@H](CC(=O)O)NC(=O)[C@H](CO)NC(=O)[C@@H](NC(=O)[C@](C)(Cc1ccccc1F)NC(=O)[C@@H](NC(=O)CNC(=O)[C@H](CCC(=O)O)NC(=O)C(C)(C)NC(=O)[C@@H](N)Cc1ccc(O)cc1)[C@@H](C)O)[C@@H](C)O)[C@@H](C)CC)[C@@H](C)CC)C(=O)N[C@@H](CCCCNC(=O)COCCOCCNC(=O)CC[C@H](NC(=O)CC[C@H](NC(=O)CC[C@H](NC(=O)CCCCCCCCCOc1ccc(C(=O)O)cc1)C(=O)O)C(=O)O)C(=O)O)C(=O)NCC(=O)NCC(=O)N1CCC[C@H]1C(=O)N[C@@H](CO)C(=O)N[C@@H](CO)C(=O)NCC(=O)N[C@@H](C)C(=O)N1CCC[C@H]1C(=O)N1CCC[C@H]1C(=O)N1CCC[C@H]1C(=O)N[C@@H](CO)C(N)=O` [Example 487] gave a Ki in assay [1] of 0.217 nM. Also, the Emax at hGIPR (setting [2]) turned out to be 89.1%; on hGLP-1R (setting [6]) it was 116%. The EC50 was 0.0161 nM at hGIPR (setting [3]), over 9950 nM at hGCGR (setting [4]), over 9950 nM at hGCGR (setting [5]) and 0.199 nM at hGLP-1R (setting [7]).

In the case of `CCCCCCCCCCCC(=O)N[C@@H](CCC(=O)NCCOCCOCC(=O)NCCOCCOCC(=O)NCCOCCOCC(=O)NCCCC[C@H](NC(=O)[C@H](CCCN)NC(=O)[C@H](CC(=O)O)NC(=O)[C@H](CC(C)C)NC(=O)[C@](C)(CC(C)C)NC(=O)[C@@H](NC(=O)C(C)(C)NC(=O)[C@H](CCCCNC(=O)COCCOCCNC(=O)COCCOCCNC(=O)COCCOCCNC(=O)CC[C@H](NC(=O)CCCCCCCCCCC)C(=O)O)NC(=O)[C@H](CC(=O)O)NC(=O)[C@H](CO)NC(=O)[C@@H](NC(=O)[C@](C)(Cc1ccccc1F)NC(=O)[C@@H](NC(=O)CNC(=O)[C@H](CCC(=O)O)NC(=O)C(C)(C)NC(=O)[C@@H](N)Cc1ccc(O)cc1)[C@@H](C)O)[C@@H](C)O)[C@@H](C)CC)C(=O)N[C@@H](C)C(=O)N[C@@H](CCC(N)=O)C(=O)NC(C)(C)C(=O)N[C@@H](CCC(=O)O)C(=O)N[C@@](C)(Cc1ccccc1)C(=O)N[C@H](C(=O)N[C@H](CCC(=O)O)C(=O)N[C@@](C)(Cc1ccc(O)cc1)C(=O)N[C@@H](CC(C)C)C(=O)N[C@H](C(=O)N[C@@H](CCC(=O)O)C(=O)NCC(=O)NCC(=O)N1CCC[C@H]1C(=O)N[C@@H](CO)C(=O)N[C@@H](CO)C(=O)NCC(=O)N[C@@H](C)C(=O)N1CCC[C@H]1C(=O)N1CCC[C@H]1C(=O)N1CCC[C@H]1C(=O)N[C@@H](CO)C(N)=O)[C@@H](C)CC)[C@@H](C)CC)C(=O)O` [Example 436], the Ki in assay [1] (setting [8]) is 0.412 nM. In addition, the Emax stood at 96% at hGIPR (HEK293, cAMP, 37° C., 0.1% bovine casein and 1.0% human serum albumin, percent of maximal response to GIP(1-42)NH2, read-out: hGIPR Emax, % ± SEM); 100% on hGLP-1R (HEK293, cAMP, 37° C., 0.1% bovine casein and 1.0% human serum albumin, read-out: hGLP-1R Emax, % ± SEM); 98.9% at hGLP-1R (HEK293, cAMP, 37° C., 0.1% bovine casein, arithmetic mean, read-out: hGLP-1R Emax, % ± SEM). Also, the EC50 at hGIPR (cAMP, 37° C., 0.1% bovine casein (no human serum albumin), geometric mean, read-out: hGIPR EC50, nM (SEM, n)) is 0.00714 nM; at hGCGR (cAMP, 37° C., 0.1% bovine casein (no human serum albumin), geometric mean, read-out: hGCGR EC50, nM (SEM, n)) it was over 9950 nM; at hGCGR (cAMP, 37° C., 0.1% bovine casein and 1.0% human serum albumin, geometric mean (SEM, n), read-out: hGCGR EC50, nM (SEM, n)), over 9950 nM; on hGLP-1R (cAMP, 37° C., 0.1% bovine casein (no human serum albumin), read-out: hGLP-1R EC50, nM (SEM, n)), 0.102 nM.

Take `CCCCCCCCCCCC(=O)N[C@@H](CCC(=O)NCCOCCOCC(=O)NCCCC[C@H](NC(=O)CNC(=O)CNC(=O)[C@H](CCC(=O)O)NC(=O)[C@@H](NC(=O)[C@H](CC(C)C)NC(=O)[C@](C)(Cc1ccc(O)cc1)NC(=O)[C@@H](CCC(=O)O)NC(=O)[C@@H](NC(=O)[C@H](Cc1ccccc1)NC(=O)[C@H](CCC(=O)O)NC(=O)C(C)(C)NC(=O)[C@H](CCC(N)=O)NC(=O)[C@H](C)NC(=O)[C@H](CCCCNC(=O)COCCOCCNC(=O)CC[C@H](NC(=O)CCCCCCCCCCC)C(=O)O)NC(=O)[C@H](CCCN)NC(=O)[C@H](CC(=O)O)NC(=O)[C@H](CC(C)C)NC(=O)[C@](C)(CC(C)C)NC(=O)[C@@H](NC(=O)[C@H](CO)NC(=O)[C@H](Cc1ccncc1)NC(=O)[C@H](CC(=O)O)NC(=O)[C@H](CO)NC(=O)[C@@H](NC(=O)[C@](C)(Cc1ccccc1F)NC(=O)[C@@H](NC(=O)CNC(=O)[C@H](CCC(=O)O)NC(=O)C(C)(C)NC(=O)[C@@H](N)Cc1ccc(O)cc1)[C@@H](C)O)[C@@H](C)O)[C@@H](C)CC)[C@@H](C)CC)[C@@H](C)CC)C(=O)N[C@@H](CO)C(=O)N[C@@H](CO)C(=O)NCC(=O)N[C@@H](C)C(=O)N1CCC[C@H]1C(=O)N1CCC[C@H]1C(=O)N1CCC[C@H]1C(=O)N[C@@H](CO)C(N)=O)C(=O)O` [Example 14]: in assay [1] (setting [8]), the Ki is 0.286 nM. The EC50 at hGIPR (0.1% bovine casein and 1.0% human serum albumin, 37° C., geometric mean, read-out: hGIPR EC50, nM (SEM, n)) was 0.769 nM; at hGCGR (0.1% bovine casein and 1.0% human serum albumin, 37° C., geometric mean, read-out: hGCGR EC50, nM (SEM, n)), over 9950 nM; at hGCGR (cAMP, incubated at 37° C., 0.1% bovine casein (no human serum albumin), geometric mean, read-out: hGCGR EC50, nM (SEM, n)), over 9950 nM; on hGLP-1R (0.1% bovine casein and 1.0% human serum albumin, 37° C., read-out: hGLP-1R EC50, nM (SEM, n)), 9.19 nM. Further, the Emax was 89.5 ± 1.02% on hGIPR (HEK293, 0.1% bovine casein and 1.0% human serum albumin, 37° C., percent of maximal response to GIP(1-42)NH2, read-out: hGIPR Emax, % ± SEM); 95 ± 2.32% at hGIPR (HEK293, percent of maximal response to GIP(1-42)NH2, 37° C., 0.1% bovine casein, arithmetic mean, read-out: hGIPR Emax, % ± SEM).

On to `CC[C@H](C)[C@H](NC(=O)[C@H](CC(C)C)NC(=O)[C@](C)(Cc1ccc(O)cc1)NC(=O)[C@@H](CCC(=O)O)NC(=O)[C@@H](NC(=O)[C@H](Cc1ccccc1)NC(=O)[C@H](CCC(=O)O)NC(=O)C(C)(C)NC(=O)[C@H](CCC(N)=O)NC(=O)[C@H](C)NC(=O)[C@H](CCCCNC(=O)COCCOCCNC(=O)CC[C@H](NC(=O)CCCCCCCCCOc1ccc(C(=O)O)cc1)C(=O)O)NC(=O)[C@H](CCCN)NC(=O)[C@H](CC(=O)O)NC(=O)[C@H](CC(C)C)NC(=O)[C@](C)(CC(C)C)NC(=O)[C@@H](NC(=O)C(C)(C)NC(=O)[C@H](Cc1ccncc1)NC(=O)[C@H](CC(=O)O)NC(=O)[C@H](CO)NC(=O)[C@@H](NC(=O)[C@](C)(Cc1ccccc1F)NC(=O)[C@@H](NC(=O)CNC(=O)[C@H](CCC(=O)O)NC(=O)C(C)(C)NC(=O)[C@@H](N)Cc1ccc(O)cc1)[C@@H](C)O)[C@@H](C)O)[C@@H](C)CC)[C@@H](C)CC)C(=O)N[C@@H](CCCCNC(=O)COCCOCCNC(=O)CC[C@H](NC(=O)CCCCCCCCCOc1ccc(C(=O)O)cc1)C(=O)O)C(=O)NCC(=O)NCC(=O)N1CCC[C@H]1C(=O)N[C@@H](CO)C(=O)N[C@@H](CO)C(=O)NCC(=O)N[C@@H](C)C(=O)N1CCC[C@H]1C(=O)N1CCC[C@H]1C(=O)N1CCC[C@H]1C(=O)N[C@@H](CO)C(N)=O` [Example 361], for which affinity in assay [1] was put at a Ki of 1.22 nM. Moreover, the Emax is 88.8% at hGIPR (setting [2]); 98.8% on hGLP-1R (HEK293, read-out: hGLP-1R Emax, % ± SEM, cAMP, 37° C., 0.1% bovine casein and 1.0% human serum albumin); 98.2% on hGLP-1R (setting [6]). For the same compound, the EC50 at hGIPR (setting [3]) was 0.0121 nM; on hGIPR (hGIPR EC50, nM (SEM, n), cAMP, 37° C., 0.1% bovine casein and 1.0% human serum albumin, geometric mean (SEM, n)), 1.44 nM; on hGCGR (setting [4]), over 9950 nM; at hGCGR (setting [5]) it was over 9950 nM; on hGLP-1R (setting [7]), 0.58 nM.
